For one data set, the target named is T1, recombinant human MAO-A (Homo sapiens, UniProt P21397).
T1 sequence (P21397 1-527): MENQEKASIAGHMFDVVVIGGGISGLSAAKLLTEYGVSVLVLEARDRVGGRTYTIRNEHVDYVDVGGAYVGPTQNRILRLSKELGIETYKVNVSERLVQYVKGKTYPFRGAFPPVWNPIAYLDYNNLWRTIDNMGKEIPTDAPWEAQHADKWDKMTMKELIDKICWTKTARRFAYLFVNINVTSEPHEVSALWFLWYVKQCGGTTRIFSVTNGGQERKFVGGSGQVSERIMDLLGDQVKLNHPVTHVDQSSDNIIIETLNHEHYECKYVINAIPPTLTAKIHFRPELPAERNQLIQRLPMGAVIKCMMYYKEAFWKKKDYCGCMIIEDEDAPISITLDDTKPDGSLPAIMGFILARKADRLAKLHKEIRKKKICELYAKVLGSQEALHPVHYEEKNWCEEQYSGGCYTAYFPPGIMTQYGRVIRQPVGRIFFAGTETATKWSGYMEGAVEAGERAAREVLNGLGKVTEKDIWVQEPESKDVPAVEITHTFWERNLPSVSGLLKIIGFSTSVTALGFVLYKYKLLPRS
The data set can be described thus: MAO-A inhibition assay. It counts as biochemical.

Data set [1] addresses T2, BChE (Equus caballus, UniProt P81908). The data set can be described thus: Kinetics of BChE inhibition. It counts as biochemical, equine.
Data set [2] addresses T3, MAO-B (Homo sapiens, UniProt P27338).
T3 sequence (P27338 1-520): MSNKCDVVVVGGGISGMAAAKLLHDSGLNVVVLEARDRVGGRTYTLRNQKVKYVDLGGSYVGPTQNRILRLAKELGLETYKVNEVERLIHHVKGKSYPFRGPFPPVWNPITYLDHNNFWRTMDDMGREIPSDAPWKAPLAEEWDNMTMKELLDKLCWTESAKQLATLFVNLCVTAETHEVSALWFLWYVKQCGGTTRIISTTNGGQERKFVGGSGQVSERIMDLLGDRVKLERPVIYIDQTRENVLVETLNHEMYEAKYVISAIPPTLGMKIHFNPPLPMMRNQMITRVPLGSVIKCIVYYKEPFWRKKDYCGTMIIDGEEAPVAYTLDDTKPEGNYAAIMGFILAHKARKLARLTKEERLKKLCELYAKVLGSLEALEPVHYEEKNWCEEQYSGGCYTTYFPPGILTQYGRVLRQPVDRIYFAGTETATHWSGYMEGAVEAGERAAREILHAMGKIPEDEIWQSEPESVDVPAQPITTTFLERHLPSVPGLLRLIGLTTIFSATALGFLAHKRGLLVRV
As to the kind of experiment: MAO-B inhibition assay. Type of data set: biochemical. To be noted: read-out: residual activity at 10 μM (%) MAO-B.

The next data set has as its target AChE (Electrophorus electricus, UniProt O42275). The data set can be described thus: AChE inhibition assay. Type of data set: biochemical.
Data set [3] concerns the target T3, MAO-B. The data set can be described thus: Kinetics of MAO-B inhibition. It counts as biochemical.
In data set [4] the target is T3, MAO-B. As to the kind of experiment: Reversibility of MAO-B inhibition by dialysis. It counts as biochemical.
The next data set has as its target BACE-1 (Homo sapiens, UniProt P56817). The data set can be described thus: BACE-1 activity detection kit. Type of data set: biochemical. To be noted: read-out: residual activity at 10 μM (%) BACE-1.
Data set [5] addresses T2, BChE. The data set can be described thus: Reversibility of BChE inhibition by dialysis. Type of data set: biochemical, equine.
The target of data set [6] is T2, BChE. The data set can be described thus: BChE inhibition assay. It counts as biochemical, equine.
The nature of data set [7]: In vitro toxicity by MTT on Vero cells. To be noted: African green monkey, Vero cells (African green monkey kidney epithelial cells), Vero cell viability, up to 100 μg/mL, 48 h, MTT.
The next data set relates to Vero cells. As to the kind of experiment: In vitro toxicity by MTT on Vero cells.
The mark [8] stands for this setting: Lineweaver–Burk and secondary plots.

The structures appear in SMILES notation. Values joined by “and” are separate entries in the source; they are usually repeats but may differ in a detail not shown here. Identical values can stand only once. “Also recorded” adds a separate entry of the source.

We go through 1 molecule from publication PMC8552465 (ACS Omega, 2021).

T2 sequence (P81908 whole entry): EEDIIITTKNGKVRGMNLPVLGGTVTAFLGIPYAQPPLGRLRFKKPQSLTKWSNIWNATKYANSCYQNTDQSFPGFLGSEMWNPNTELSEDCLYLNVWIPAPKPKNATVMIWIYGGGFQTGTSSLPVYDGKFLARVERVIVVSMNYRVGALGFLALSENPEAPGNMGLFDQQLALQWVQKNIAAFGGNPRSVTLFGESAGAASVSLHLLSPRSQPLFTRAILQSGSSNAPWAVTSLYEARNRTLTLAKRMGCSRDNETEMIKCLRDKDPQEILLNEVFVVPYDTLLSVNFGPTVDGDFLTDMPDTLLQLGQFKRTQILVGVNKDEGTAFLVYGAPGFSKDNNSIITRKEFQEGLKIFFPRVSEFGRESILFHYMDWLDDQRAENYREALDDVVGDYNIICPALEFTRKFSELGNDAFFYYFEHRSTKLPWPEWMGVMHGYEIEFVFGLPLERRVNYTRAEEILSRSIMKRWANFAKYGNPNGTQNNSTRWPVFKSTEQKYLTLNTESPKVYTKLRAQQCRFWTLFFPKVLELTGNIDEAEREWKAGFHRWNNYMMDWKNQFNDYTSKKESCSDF
AChE, sequence (O42275 24-633): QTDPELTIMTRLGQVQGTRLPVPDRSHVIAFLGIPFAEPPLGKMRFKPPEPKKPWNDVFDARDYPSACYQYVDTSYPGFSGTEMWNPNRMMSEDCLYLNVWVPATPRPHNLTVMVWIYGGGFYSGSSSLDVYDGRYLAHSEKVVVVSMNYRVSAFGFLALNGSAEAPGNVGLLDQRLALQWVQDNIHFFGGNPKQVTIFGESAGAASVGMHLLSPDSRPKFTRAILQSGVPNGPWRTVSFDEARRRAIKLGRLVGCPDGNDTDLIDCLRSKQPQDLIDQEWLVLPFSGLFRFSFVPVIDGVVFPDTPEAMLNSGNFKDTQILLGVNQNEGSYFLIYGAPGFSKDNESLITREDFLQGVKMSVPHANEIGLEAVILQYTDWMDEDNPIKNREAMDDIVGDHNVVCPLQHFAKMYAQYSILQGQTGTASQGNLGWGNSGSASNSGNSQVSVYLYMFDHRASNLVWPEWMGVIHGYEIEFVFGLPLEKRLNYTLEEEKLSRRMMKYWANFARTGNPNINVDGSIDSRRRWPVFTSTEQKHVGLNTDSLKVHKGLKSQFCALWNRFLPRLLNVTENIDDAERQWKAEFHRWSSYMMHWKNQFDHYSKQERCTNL
BACE-1, sequence (P56817 46-501): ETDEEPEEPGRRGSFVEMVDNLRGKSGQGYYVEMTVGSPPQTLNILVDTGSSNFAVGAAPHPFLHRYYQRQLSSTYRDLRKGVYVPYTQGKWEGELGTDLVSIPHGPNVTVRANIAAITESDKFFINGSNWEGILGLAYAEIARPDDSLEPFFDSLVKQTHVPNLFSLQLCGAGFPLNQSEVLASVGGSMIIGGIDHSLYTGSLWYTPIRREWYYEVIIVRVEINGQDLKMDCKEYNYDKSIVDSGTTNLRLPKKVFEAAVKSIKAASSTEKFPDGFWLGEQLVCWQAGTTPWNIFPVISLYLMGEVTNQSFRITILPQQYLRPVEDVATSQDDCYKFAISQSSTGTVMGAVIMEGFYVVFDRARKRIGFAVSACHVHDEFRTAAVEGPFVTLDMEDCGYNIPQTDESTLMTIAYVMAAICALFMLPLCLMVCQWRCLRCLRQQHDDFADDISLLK

For orientation: IC50 means the concentration that inhibits the measured activity by half. As a reminder, the Ki is a dissociation constant, usually derived from enzyme kinetics or from competition with a known ligand. As usually defined, the residual activity is the share of the control activity or signal that is left under treatment. By viability is commonly meant a read-out of living cells in per cent, often relative to untreated cells. As to `O=C(/C=C/c1ccccc1Cl)c1cc2ccccc2oc1=O` [CC2, 3-[(2E)-3-(2-chlorophenyl)prop-2-enoyl]-2H-1-benzopyran-2-one], the IC50 on recombinant human MAO-A was above 40 µM; on AChE (IC50 (μM) AChE, means ± standard errors, reference compounds after preincubation for 30 min with enzymes) it was 40.1 ± 0.12 µM; against BChE [6] it was 7 ± 0.02 µM; with Vero cells (Chlorocebus sabaeus, Vero, 48 h, read-out: IC50 Vero cell viability) it was 142 µg/mL and 456 µM. The remaining activity at 10 µM on recombinant human MAO-A (read-out: residual activity at 10 μM (%) MAO-A) was 76.6 ± 1.8%; on MAO-B [2] it was 19.8 ± 5.9%; on AChE (read-out: residual activity at 10 μM (%) AChE, 10 μM), 69.4 ± 3.6%; at BACE-1, 61.1 ± 1%; at BChE [6] (read-out: residual activity at 10 μM (%) BChE, 10 μM) it was below 50%. The Ki came out at 2.84 ± 0.09 µM on BChE [1] and 0.53 ± 0.04 µM on MAO-B [3]. For the same molecule, the “type of BChE inhibition” value at BChE [1] (setting [8]) is “competitive”. For the same molecule, the “type of MAO-B inhibition” value on MAO-B [3] (setting [8]) is reported as “competitive”. For the same molecule, on MAO-B [4], the “reversibility of MAO-B inhibition” value is recorded as “reversible”. For the same molecule, on BChE [5], the “reversibility of BChE inhibition” value is listed as “reversible”. The “residual activity at 10 μM (%) BChE” value at BChE [6] (10 μM) was 43.9 ± 3.7%. Moreover, in data set [7], the viability at 48 h, 100 μg/mL was around 70%. This molecule came in with a Vero cell viability with Vero cells (up to 100 μg/mL, 48 h, MTT) above 70%. Besides, the “toxicity for Vero cells” value in the data set with Vero cells (up to a concentration of 100 μg/mL) is “nontoxic; also recorded: not toxic”.
